Molecular target: T1, Ceramide transfer protein (CERT) (Homo sapiens, UniProt Q9Y5P4)
T1 construct: gene CERT1; PH domain, residues 20–122 (three extra amino acids G-E-F before residue 20)
T1 sequence (Q9Y5P4 20-122): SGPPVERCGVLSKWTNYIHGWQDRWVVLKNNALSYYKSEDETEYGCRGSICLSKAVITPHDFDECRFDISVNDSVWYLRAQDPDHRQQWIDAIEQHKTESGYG
Assay: […]-1H HSQC NMR chemical shift titration, global fit
Format: binding

- Kd: 470 ± 14 µM
Compound: CCCCCC(=O)OC[C@H](COP(=O)(O)O[C@H]1[C@H](O)[C@@H](O)[C@H](OP(=O)(O)O)[C@@H](O)[C@H]1O)OC(=O)CCCCC [diC6-PtdIns(4)P]
